Experimental data reported in patent US9233098B2, “Nitrogen-containing fused ring compounds as CRTH2 antagonists” (KBP Biosciences Co., Ltd., priority 2011, dated 2016).
Marks after values point to notes of the source that are not given here.

These compounds were tested on OVA induced BALB/c mice asthma model (assay: OVA induced mice asthma model, cell count of pulmonary alveoli irrigating solution (oral administration)). Conditions: 30 mg/kg oral bid, Mean ± SEM.
Assay type: in vivo
Method: Test procedure and results are as follows:
After acclimation, female BALB/c mice were divided into a blank control group, a model group and an administration group based on body weight randomly. Animal groups, dosage of administration and volume of administration were as detailed in Table 2. The model group and the administration group were intraperitoneally injected with OVA (ovalbumin) solution (containing […] and 2 mg potassium aluminium sulfate) 0.1 mL/animal to allergize on days 1, 14, the blank control group was injected with PBS (phosphate buffer solution). On days 28, 29, 30, 1% OVA was atomized and inhaled continuously to activate for 30 min, for the blank control group replaced with PBS. On days 27, 28, 29, 30, 31, the animals were administered orally with the pharmaceutical and the solvent. The blank control group was administered with the solvent 2 times every day, 1 h before inhalation of PBS and 7 h after the inhalation; the model group was administered with the solvent 2 times every day, 1 h before the inhalation of OVA for activation and 7 h after activation; the administration group was administered with the pharmaceutical 2 times every day, 1 h before the inhalation of OVA for activation and 7 h after activation. On day 32, the animals were executed, immediately irrigated the lung with 0.5 mL PBS (containing 1% FBS) via bronchus, and the irrigation was repeated 2 times. The irrigating solutions were combined, centrifugated, and the cells were resuspended with 1.5 mL PBS (containing 1% FBS). Cell count of bronchus pulmonary alveoli irrigating solution.
For `O=C(O)Cc1nn(Cc2ccc(NC(=O)c3ccc4ccccc4c3)cc2)c2ccccc12` [Compound 9, 2-[1-[4-(2-naphthamido)benzyl]-1H-indazol-3-yl]acetic acid], the “Acidophilic Cell” value was 35.26 ± 4.53** *10^4/mL, the Lymphocytes was 1.33 ± 0.23 *10^4/mL and the Macrophages was 55.38 ± 5.1** *10^4/mL. The “Neutrophilic Granulocyte” value was 6.66 ± 1.87* *10^4/mL and the “Total White Cell Count” value was 98.63 ± 4.53** *10^4/mL.

These compounds were tested against T1, CRTH2 receptor (Homo sapiens, UniProt Q9Y5Y4) (assay: Calcium flux FLIPR assay, antagonism against CRTH2 receptor (PGD2 at EC80)). Conditions: CHO-K1/CRTH2/Gα15 cells; blocking activation induced by PGD2 at EC80.
T1 construct: host or cells: CHO-K1/CRTH2/Gα15
T1 sequence (Q9Y5Y4 1-395): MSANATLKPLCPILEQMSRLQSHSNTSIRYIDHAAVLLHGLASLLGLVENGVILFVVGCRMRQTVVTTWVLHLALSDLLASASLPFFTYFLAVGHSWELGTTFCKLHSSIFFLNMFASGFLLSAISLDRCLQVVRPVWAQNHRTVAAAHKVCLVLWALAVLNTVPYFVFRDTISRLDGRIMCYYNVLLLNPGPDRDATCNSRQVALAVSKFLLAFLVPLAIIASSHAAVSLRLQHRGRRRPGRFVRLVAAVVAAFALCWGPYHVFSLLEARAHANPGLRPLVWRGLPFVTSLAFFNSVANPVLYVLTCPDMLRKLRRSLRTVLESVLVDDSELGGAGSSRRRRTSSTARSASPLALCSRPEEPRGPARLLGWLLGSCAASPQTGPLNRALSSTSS
Assay type: cell-based
Method: Test procedure The test was performed by Nanjing GenScript Biotech Ltd. by calcium flux assay. Test procedure and results are as follows:
Material for test was weighed accurately, and DMSO was added to dissolve the material for test, mixed and homogenized sufficiently, and formulated to 50 mM. And then, it was diluted to 50 μM by using 20 mM HEPES (hydroxyethylpiperazine ethanesulfonic acid) buffer solution at pH 7.4, and the maximum concentration of the compound was 10000 nM. It was further diluted by 3 folds as a series, and consecutively diluted to 10 concentrations, to reserve.
FLIPR Assay (Real Time Fluorescence Imaging Analysis)
In a 384 black microwell plate, 20 μl of cell solution containing 20000 CHO-K1/CRTH2/Gα15 was added, and was incubated at 37° C., 5% CO2 for 18 h. Then, 20 μl of stain in the FLIPR® Calcium 4 assay kit (kit) was added, and 10 μl of compound solution was added. Then, it was incubated at 37° C. for 60 min, and was incubated at room temperature for 15 min. Within 20 seconds, PGD2 HEPES buffer solution of an agonist PGD2 (prostaglandin D2) at the concentration of EC80 was added, and the values of fluorescence of 21-120 seconds were detected.
Data Processing ΔRFU(Relative fluorescence intensity)=maximum fluorescence value of 21-120 seconds−average value of fluorescence value of 1-20 seconds. Inhibition ratio={1−(ΔRFUcompound−ΔRFUbackground)/(ΔRFUagonists control−ΔRFUbackground)}×100 IC50 values of the compounds (i.e. the concentration of the compound for test needed for blocking 50% of the activation of CRTH2 receptor induced by PGD2 at the concentration of EC80) were calculated based on the inhibition ratios. Test Results and Conclusions
Compound `Cc1c(Cc2ccc(NC(=O)c3ccc(Cl)c(Cl)c3)cc2)c2ccccc2n1CC(=O)O` [Compound 4, 2-[3-[4-(3,4-dichlorobenzamido)benzyl]-2-methyl-1H-indol-1-yl]acetic acid] has an IC50 of 2.7 nM. For `CCc1c(Cc2ccc(NC(=O)c3ccc4ccccc4c3)cc2)c2ccccc2n1CC(=O)O` [Compound 7, 2-[3-[4-(2-naphthamido)benzyl]-2-ethyl-1H-indol-1-yl]acetic acid], the IC50 was 7 nM. In the case of `Cc1c(Cc2ccc(NC(=O)c3ccc(C(F)(F)F)cc3)cc2)c2ccccc2n1CC(=O)O` [Compound 3, 2-[2-methyl-3-[4-[4-(trifluoromethyl)benzamido]benzyl]-1H-indol-1-yl]acetic acid], the IC50 is reported as 6.2 nM. For `O=C(O)Cn1nc(Cc2ccc(NC(=O)c3ccc4ccccc4c3)cc2)c2ccccc21` [Compound 5, 2-[3-(4-(2-naphthamido)benzyl)-1H-indazol-1-yl]acetic acid], the IC50 was 2.3 nM. For `O=C(O)Cn1nc(Cc2ccc(NC(=O)c3ccc(Cl)cc3)cc2)c2ccccc21` [Compound 8, 2-[3-[4-(4-chlorobenzamido)benzyl]-1H-indazol-1-yl]acetic acid], the IC50 was 9.7 nM. Work on `O=C(O)Cc1nn(Cc2ccc(NC(=O)c3ccc4ccccc4c3)cc2)c2ccc(F)cc12` [Compound 11, 2-[1-[4-(2-naphthamido)benzyl]-5-fluoro-1H-indazol-3-yl]acetic acid] yielded an IC50 of 1.19 nM. Work on `O=C(O)Cc1nn(Cc2ccc(NC(=O)c3ccc(Cl)cc3)cc2)c2ccccc12` [Compound 10, 2-[1-[4-(4-chlorobenzamido)benzyl]-1H-indazol-3-yl]acetic acid] yielded an IC50 of 7.3 nM. `O=C(O)Cc1nn(Cc2ccc(NC(=O)c3ccc4cc(F)ccc4c3)cc2)c2ccccc12` [Compound 13, 2-[1-[4-(6-fluoro-2-naphthamido)benzyl]-1H-indazol-3-yl]acetic acid] showed an IC50 of 4.42 nM. With `O=C(O)Cc1nn(Cc2ccc(NC(=O)c3ccc4ccccc4c3)cc2)c2ccccc12` [Compound 9, 2-[1-[4-(2-naphthamido)benzyl]-1H-indazol-3-yl]acetic acid] the IC50 was 3.6 nM. Compound `O=C(O)Cc1nn(Cc2ccc(NC(=O)c3ccc4ccccc4c3)cc2)c2ncccc12` [Compound 23, 2-[1-[4-(2-naphthamido)benzyl]-1H-pyrazolo[3,4-b]pyridin-3-yl]acetic acid] has an IC50 of 5.7 nM. `O=C(O)Cc1nn(Cc2ccc(NC(=O)c3ccc4ccccc4c3)cc2)c2cc(F)ccc12` [Compound 12, 2-[1-[4-(2-naphthamido)benzyl]-6-fluoro-1H-indazol-3-yl]acetic acid] showed an IC50 of 14.9 nM. `Cc1c(Cc2ccc(NC(=O)c3ccc(Cl)cc3)cc2)c2ccccc2n1CC(=O)O` [Compound 6, 2-[3-[4-(4-chlorobenzamido)benzyl]-2-methyl-1H-indol-1-yl]acetic acid] was tested, and the IC50 was 0.5 nM. `Cc1c(CC(=O)O)c2ccccc2n1Cc1ccc(NC(=O)c2ccc3ccccc3c2)cc1` [Compound 1, 2-[1-[4-(2-naphthamido)benzyl]-2-methyl-1H-indol-3-yl]acetic acid] was tested, and the IC50 was 2.6 nM. For `Cc1c(Cc2ccc(NC(=O)c3ccc4ccccc4c3)cc2)c2ccccc2n1CC(=O)O` [Compound 2, 2-[3-[4-(2-naphthamido)benzyl]-2-methyl-1H-indol-1-yl]acetic acid], the IC50 was 2.3 nM. Work on `O=C(O)CCn1c2c(c3ccccc31)C[C@H](NS(=O)(=O)c1ccc(F)cc1)CC2` [Ramatroban, reference compound] yielded an IC50 of 10300 nM.
